What was measured:
[1] = in vitro dissolution, USP II apparatus (paddles), 50 rpm, pH 6.8 phosphate buffer; type: physicochemical; conditions: FIG. 1; similar time points; matrix tablets with Eudragit NE40D
Method: FIG. 1 is the in vitro dissolution profiles of embodied formulations of the present invention when measured using a USP II apparatus at 50 rpm in pH 6.8 phosphate buffer.
The resulting in vitro dissolution profiles of these batches as tested using a USP II apparatus (paddles) at 50 rpm in pH 6.8 phosphate buffer are set out in Table 3.

[2] = Desvenlafaxine particle size (MMD); type: physicochemical; conditions: particle size of desvenlafaxine salt grade
Excerpt: The “mass mean diameter” or “MMD” refers to the median particle diameter based on mass (i.e. the particle diameter where one half of the mass of particles is contributed by particles with a lesser diameter and one half of the mass of particles is contributed by particles with a greater diameter) and can be measured using various commonly available methods such as measurement using light (eg. light-scattering methods or turbidimetric methods), sedimentation methods (eg. pipette analysis using an Andreassen pipette, sedimentation scales, photo-sedimentometers or sedimentation in a centrifugal force), pulse methods (eg. Coulter counter), or sorting by means of gravitational or centrifugal force.
The particle size of desvenlafaxine utilised in the following formulations are set out in Table 1.

[3] = cited from earlier work
norepinephrine uptake = conditions: in vitro studies; cited from earlier work
dopamine uptake = conditions: in vitro studies; cited from earlier work

MMD (mass mean diameter) [2]	Structure (SMILES)	change in amount of desvenlafaxine dissolved, coarse to fine [1]	further results
21 μm	CN(C)CC(c1ccc(O)cc1)C1(O)CCCCC1.O=C(O)/C=C/C(=O)O (stereo not shown) [Fine fumarate]	approximately similar increase in the amount of desvenlafaxine dissolved	–
186 μm	CN(C)CC(c1ccc(O)cc1)C1(O)CCCCC1.O=C(O)CCC(=O)O (stereo not shown) [Coarse succinate]	–	–
184 μm	CN(C)CC(c1ccc(O)cc1)C1(O)CCCCC1.O=C(O)/C=C/C(=O)O (stereo not shown) [Coarse fumarate]	–	–
–	CN(C)CC(c1ccc(O)cc1)C1(O)CCCCC1 (racemic) [desvenlafaxine, (+/−)-4-[2-(dimethylamino)-1-(1-hydroxycyclohexyl)ethyl]phenol]	–	half-life ([3]; in vivo): about 10 hours; half-life relative to venlafaxine ([3]; times longer than the half-life of venlafaxine): approximately 2.5 times; inhibition of norepinephrine uptake compared with racemic venlafaxine (norepinephrine uptake): more potent inhibitor; inhibition of dopamine uptake compared with racemic venlafaxine (dopamine uptake): more potent inhibitor
37 μm	CN(C)CC(c1ccc(O)cc1)C1(O)CCCCC1.O=C(O)CCC(=O)O (stereo not shown) [Fine succinate]	marked increase in the amount of desvenlafaxine dissolved	–

Reference: patent publication US20100330172A1, “CONTROLLED-RELEASE PHARMACEUTICAL FORMULATION” (ALPHAPHARM PTY LTD, priority 2007, published 2010)
